Results reported in paper PMC9268025, “GC-MS/MS Quantification of EGFR Inhibitors, β-Sitosterol, Betulinic Acid, (+) Eriodictyol, (+) Epipinoresinol, and Secoisolariciresinol, in Crude Extract and Ethyl Acetate Fraction of Thonningia sanguinea” (Molecules, 2022).

Target: epidermal growth factor receptor (EGFR) (Homo sapiens, UniProt P00533)
Experiment: ADP-Glo EGFR kinase inhibition assay (Promega V9261), eight concentrations
Assay type: biochemical

Sequence of epidermal growth factor receptor (EGFR) (P00533 25-1210): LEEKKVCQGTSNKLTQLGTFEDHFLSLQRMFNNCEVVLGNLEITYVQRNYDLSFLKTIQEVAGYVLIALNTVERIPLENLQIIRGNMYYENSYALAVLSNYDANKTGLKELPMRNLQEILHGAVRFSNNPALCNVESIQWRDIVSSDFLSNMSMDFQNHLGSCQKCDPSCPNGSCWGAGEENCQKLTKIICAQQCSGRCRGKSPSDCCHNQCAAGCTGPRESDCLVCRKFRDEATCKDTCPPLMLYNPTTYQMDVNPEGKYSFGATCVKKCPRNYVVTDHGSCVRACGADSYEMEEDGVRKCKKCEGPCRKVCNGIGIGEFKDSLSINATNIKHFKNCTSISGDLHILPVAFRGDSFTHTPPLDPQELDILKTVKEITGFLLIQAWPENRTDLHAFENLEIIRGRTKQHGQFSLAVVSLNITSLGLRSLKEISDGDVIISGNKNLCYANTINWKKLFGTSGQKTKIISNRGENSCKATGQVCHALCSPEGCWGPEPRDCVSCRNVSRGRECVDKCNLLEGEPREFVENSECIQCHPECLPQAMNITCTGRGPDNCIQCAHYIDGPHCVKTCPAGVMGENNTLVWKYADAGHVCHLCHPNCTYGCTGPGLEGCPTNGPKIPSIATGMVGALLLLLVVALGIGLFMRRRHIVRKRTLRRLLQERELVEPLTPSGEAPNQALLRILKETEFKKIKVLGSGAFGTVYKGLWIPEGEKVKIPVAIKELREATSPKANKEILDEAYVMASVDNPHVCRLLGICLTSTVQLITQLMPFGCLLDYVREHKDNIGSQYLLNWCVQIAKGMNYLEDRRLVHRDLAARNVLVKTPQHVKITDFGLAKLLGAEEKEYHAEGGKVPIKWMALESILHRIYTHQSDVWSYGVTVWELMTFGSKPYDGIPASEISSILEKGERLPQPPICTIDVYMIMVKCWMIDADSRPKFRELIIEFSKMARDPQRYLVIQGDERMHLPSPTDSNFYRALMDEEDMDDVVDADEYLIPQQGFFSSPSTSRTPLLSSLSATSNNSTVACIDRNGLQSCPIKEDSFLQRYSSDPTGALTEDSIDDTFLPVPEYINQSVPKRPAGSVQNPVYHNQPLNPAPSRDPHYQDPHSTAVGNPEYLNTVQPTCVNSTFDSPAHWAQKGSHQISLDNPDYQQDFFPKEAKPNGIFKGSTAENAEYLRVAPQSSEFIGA

SMILES | IC50 [nM]
O=C1C[C@@H](c2ccc(O)c(O)c2)Oc2cc(O)cc(O)c21 [(+) Eriodictyol] | 76.2
COc1cc(C[C@@H](CO)[C@H](CO)Cc2ccc(O)c(OC)c2)ccc1O [Secoisolariciresinol] | 80.3
